Results: the supplement of paper PMC10307832

Assays:
Experiment in all cases: relative viability (nuclei count vs DMSO), 5 days (fraction); higher = more cells survive
AZD5582 + Decitabine = compound: C[C@@H](C(=O)N[C@@H](C1CCCCC1)C(=O)N2CCC[C@H]2C(=O)N[C@@H]3[C@@H](CC4=CC=CC=C34)OCC#CC#CCO[C@@H]5CC6=CC=CC=C6[C@@H]5NC(=O)[C@@H]7CCCN7C(=O)[C@H](C8CCCCC8)NC(=O)[C@H](C)NC)NC [AZD5582] + Nc1ncn([C@H]2C[C@H](O)[C@@H](CO)O2)c(=O)n1 [Decitabine] (partner 2 µM)
In short: (§1)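 For relative viability, nuclei counts in treated wells were divided by those in vehicle wells. Lung cancer cell lines had been pin-tool dosed in 1536-well plates the day after seeding and cultured for 5 days, then fixed and stained in one step (final 0.05% Triton X-100, 1% formaldehyde, 1 ug/ml Hoechst) and imaged at 4×. Doses were one drug alone or a fixed anchor-drug dose plus five library-drug doses (not always all listed) in √10 steps, and values are duplicate-plate medians.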

AZD5582 + Alpelisib = compound: C[C@@H](C(=O)N[C@@H](C1CCCCC1)C(=O)N2CCC[C@H]2C(=O)N[C@@H]3[C@@H](CC4=CC=CC=C34)OCC#CC#CCO[C@@H]5CC6=CC=CC=C6[C@@H]5NC(=O)[C@@H]7CCCN7C(=O)[C@H](C8CCCCC8)NC(=O)[C@H](C)NC)NC [AZD5582] + Cc1nc(NC(=O)N2CCC[C@H]2C(N)=O)sc1-c1ccnc(C(C)(C)C(F)(F)F)c1 [Alpelisib] (partner 2 µM)
In short: as §1

Temozolomide + Lapatinib = compound: Cn1nnc2c(C(N)=O)ncn2c1=O [Temozolomide] + CS(=O)(=O)CCNCc1ccc(-c2ccc3ncnc(Nc4ccc(OCc5cccc(F)c5)c(Cl)c4)c3c2)o1 [Lapatinib] (partner 2 µM)
In short: as §1

Temozolomide + Alpelisib = compound: Cn1nnc2c(C(N)=O)ncn2c1=O [Temozolomide] + Cc1nc(NC(=O)N2CCC[C@H]2C(N)=O)sc1-c1ccnc(C(C)(C)C(F)(F)F)c1 [Alpelisib] (partner 2 µM)
In short: as §1

Cell Line	relative viability (AZD5582 + Decitabine; first compound 0.001581 µM)	relative viability (AZD5582 + Decitabine; first compound 0.005 µM)	relative viability (AZD5582 + Decitabine; first compound 0.01581 µM)	relative viability (AZD5582 + Decitabine; first compound 0.05 µM)	relative viability (AZD5582 + Alpelisib; first compound 0.001581 µM)	relative viability (AZD5582 + Alpelisib; first compound 0.005 µM)	relative viability (AZD5582 + Alpelisib; first compound 0.01581 µM)	relative viability (AZD5582 + Alpelisib; first compound 0.05 µM)	relative viability (Temozolomide + Lapatinib; first compound 0.2 µM)	relative viability (Temozolomide + Lapatinib; first compound 0.6325 µM)	relative viability (Temozolomide + Lapatinib; first compound 2 µM)	relative viability (Temozolomide + Lapatinib; first compound 6.325 µM)	relative viability (Temozolomide + Lapatinib; first compound 20 µM)	relative viability (Temozolomide + Alpelisib; first compound 0.2 µM)	relative viability (Temozolomide + Alpelisib; first compound 0.6325 µM)	relative viability (Temozolomide + Alpelisib; first compound 2 µM)	relative viability (Temozolomide + Alpelisib; first compound 6.325 µM)	relative viability (Temozolomide + Alpelisib; first compound 20 µM)
201T	0.866	0.913	0.856	1.02	1.05	1.07	0.977	1.25	1.07	1.06	1.03	1.02	1.03	0.977	1.05	1.04	1.04	0.985
A549	0.214	0.271	0.211	0.263	0.713	0.717	0.769	0.835	0.989	1.03	1.01	1.03	0.912	0.828	0.738	0.69	0.738	0.773
A-427	0.496	0.582	0.573	0.53	0.996	1.01	1.04	0.881	0.989	1.09	1.14	0.91	0.487	1.05	1.06	1.05	0.878	0.547
ABC-1	1.06	1.08	0.931	1.36	1.17	1.15	1.07	1.03	0.93	1.22	1.18	1.16	1.3	1.19	1.17	1.15	1.1	0.829
BEN	0.699	0.668	0.683	0.62	0.884	1.07	1.16	1.27	0.641	0.692	0.66	0.633	0.467	0.914	1.29	0.939	0.977	0.757
CAL-12T	–	–	–	–	–	0.713	1.24	1.01	–	0.585	0.601	0.607	0.8	1.11	1.22	1.14	1.06	1.18
COR-L23	0.476	0.441	0.445	0.481	0.73	0.801	0.799	0.875	1.25	1.03	1.12	1.02	0.948	0.957	0.851	0.859	0.752	0.662
COR-L 105	0.666	0.724	0.632	0.723	0.961	0.847	0.981	1.49	0.392	0.387	0.356	0.35	0.351	0.915	1.03	1.15	1.07	1.02
Calu-6	–	–	–	–	0.822	0.843	1.07	0.734	1.17	1.07	1.11	1.13	1.16	1.03	0.989	0.984	0.973	0.977
ChaGo-K-1	0.545	0.579	0.509	0.597	–	–	–	–	–	–	–	–	–	–	–	–	–	–
EBC-1	–	–	–	–	0.754	0.866	0.869	0.857	0.197	0.193	0.252	0.203	0.194	0.982	0.812	0.918	0.769	0.871
EKVX	0.351	0.377	0.294	0.385	0.868	1.03	0.82	1.08	0.189	0.238	0.204	0.242	0.197	0.335	0.935	0.856	0.886	0.656
EMC-BAC-2	0.892	0.97	0.887	0.841	0.702	0.628	0.721	0.316	0.914	0.871	0.898	0.856	0.84	0.743	0.731	0.743	0.75	0.691
EPLC-272H	0.148	–	0.385	0.0824	0.635	0.506	0.136	0.217	1.12	1.05	1.01	0.798	0.858	0.727	1.08	0.947	0.849	0.664
H3255	0.556	0.626	0.572	0.553	0.596	0.587	0.629	0.498	–	0.243	0.233	0.376	0.241	–	0.686	0.599	0.755	0.146
HARA	0.595	0.53	0.565	0.49	0.75	0.783	0.866	0.701	0.777	0.721	0.975	0.658	0.732	0.72	0.945	0.81	0.773	0.666
HCC-15	0.534	0.559	0.602	0.418	0.771	0.648	0.922	0.555	0.91	0.87	0.931	0.829	0.892	0.903	0.947	0.898	0.993	0.834
HCC-44	0.828	0.786	0.845	0.681	0.683	0.525	0.738	0.368	1.14	1.01	1.11	1.05	0.975	0.811	0.842	0.868	0.786	0.717
HCC-78	0.786	0.703	0.688	0.585	0.298	0.395	0.307	0.3	0.938	0.602	0.791	0.321	0.826	0.232	0.343	0.348	0.356	0.284
